Like-named read-outs stand apart in the source and are kept apart here.

Data set [1] can be described thus: LD50 (median lethal dose) determination. Format: cell-based. From the text:
IC50 is a measure of the effectiveness of a compound in inhibiting biological or biochemical function. LD50 is the amount of a compound required to kill half the members of a tested population.

For data set [2], the system named is Math1 enhancer and minimal promoter Luciferase reporter in HEK cells. Put plainly: Math1 Luciferase reporter assay in HEK cells. Format: cell-based, human. From the text: A human embryonic kidney (HEK) cell line stably expressing a Luciferase gene controlled by an Math1 enhancer and minimal promoter was used in a high-throughput screen (HTS) of 144,000 small molecules to identify compounds that increase Math1 expression (i.e., transcription and/or translation). Such compounds can be used to increase the conversion of stem cells, progenitor cells, and support cells to or towards a hair cell. Screens to identify such compounds are described by Li et al., (U.S. Publication No. 2005/0287127) and Li et al., (U.S. application Ser. No. 11/953,797).
HEK cells stably expressing the Math1 Luciferase reporter were plated onto 384 well plates and cultured overnight in medium containing 10% fetal calf serum (FCS). Activation of the Math1 enhancer was measured by the increase in luminescence on a plate reader following addition of a luciferase detection agent. The assay was optimized for cell number, time of incubation, volume of medium, cell lysis reagent and luciferase reagent. Luminescence levels were compared in cells with the Math1-luciferase construct with and without retinoic acid (1 μM), and/or a luciferase construct with and without the Math1 enhancer and minimal promoter region.
To improve assay sensitivity, and reduce the coefficient of variation (CV), a more sensitive luciferase reagent (BriteLite luciferase reporter assay reagent, Perkin Elmer) was used, and Triton-X-100 was added to the lysis reagent to ensure complete lysis of the cells. Following these changes a CV of 4.2% was recorded. These conditions were used for all high-throughput screens. The luminescence threshold for a compound to be positive was defined as a 2-fold increase above the control (e.g., cells exposed to DMSO).
Cells were seeded on 384 well plates and allowed to attach overnight at 37° C. with 5% CO2 in the absence of growth factors. Math1 activation was measured by the increase in luminescence on a plate reader following addition of a luciferase detection reagent. Luminescence was assessed at 24, 48, and 72 hours. These conditions were used to screen 144,000 compounds contained in the small molecule libraries at Harvard University's Laboratory for Drug Discovery in Neurodegeneration (LDDN).
HTS were performed using HEK-Math1 cells seeded in 384 well plates. One compound was added per well using pin transfer. The final concentration of each compound was […]. Cell were incubated in the presence of a compound for 48 hours at 37° C. with 5% CO2. Cell lysates then were collected and bioluminescence determined. Luminescence values were compared normalized against DMSO.
About 20000 compounds were screened per week in 50 plates of 384 well with the aid of robotic systems (Beckman Biomek FX). Compounds were screened at an average final concentration of 0.7 μM (in 0.04% DMSO) with each plate containing 16 wells of 1 μM retinoic acid, as a positive control, and 16 wells of 0.04% DMSO, as a vehicle control. Percent activation of luminescence in the test compounds was determined for cells treated with the compounds against cells treated with DMSO.
Ten compounds, randomly selected from the group of 110 compounds identified in Example 2, were further evaluated, as follows. HEK cells were plated on 96 well plates at a density of 100000 cells per well. One day after plating, 0.1, 1, and 5 μM of each positive compound was added per well in a 10% fetal bovine serum (FBS) DMEM solution. Cells were then lysed 48 hours after addition of the compound and Math1 expression was analyzed using a luciferase reporter assay, as described above, and real-time PCR.
The half maximal inhibitory concentration (IC50) and median lethal dose or Lethal Dose, 50% (LD50) were determined for each of the compounds identified in Example 2 using standard laboratory techniques. IC50 is a measure of the effectiveness of a compound in inhibiting biological or biochemical function. LD50 is the amount of a compound required to kill half the members of a tested population.
(In general: A reporter such as luciferase makes a cellular process visible.)

Setting [3] is: Homo sapiens, HEK293; read-out: IC50.
[4] abbreviates: Homo sapiens, HEK293; read-out: Maximum (Fold DMSO).

For the compound `Oc1ccc(-c2nc3ccccc3[nH]2)cc1` [CP-0047659, 4-(1H-benzo[d]imidazol-2-yl)phenol], the “LD50” value in data set [1] is over 10 µM. For the same compound, the IC50 (in general, the point on the concentration scale where inhibition reaches its midpoint) in data set [2] (setting [3]) came to 1300 nM. Moreover, the maximal fold induction in data set [2] (setting [4]) amounted to 2.3.

As to `O=C(CSc1nc2ccccc2c(=O)n1NC(=O)c1ccccc1)c1ccc(F)cc1` [CP-0036187, N-(2-(2-(4-fluorophenyl)-2-oxoethylthio)-4-oxoquinazolin-3(4H)-yl)benzamide], in data set [1], the “LD50” value was over 10 µM. In data set [2] (setting [3]), the IC50 turned out to be 1000 nM. The maximal fold induction in data set [2] (setting [4]) was 2.3.

Regarding `Cc1cccc(-c2ccc3ccccc3n2)c1` [CP-0072092, 2-m-tolylquinoline], in data set [1], the “LD50” value is over 10 µM. The IC50 in data set [2] (setting [3]) was determined as 1000 nM. For the same compound, in data set [2] (setting [4]), the maximal fold induction was 1.7.

As to `c1ccc2cc(-c3cc4ccccc4[nH]3)ccc2c1` [CP-0010539, 2-(naphthalen-2-yl)-1H-indole], the “LD50” value in data set [1] is over 10 µM. The IC50 in data set [2] (setting [3]) is 500 nM. Also, in data set [2] (setting [4]), the maximal fold induction is 2.1.

For the compound `COc1ccc(-c2cn3ccsc3n2)cc1` [CP-0061401, 6-(4-methoxyphenyl) imidazo[2,1-b]thiazole], in data set [1], the “LD50” value was over 10 µM. Moreover, in data set [2] (setting [3]), the IC50 was 600 nM. For the same compound, the maximal fold induction in data set [2] (setting [4]) is 1.8.

Regarding `COc1ccc(COn2c(-c3ccc(OC)cc3)nc3ccc(Cl)cc32)cc1` [CP-0000557, 6-chloro-1-(4-methoxybenzyloxy)-2-(4-methoxyphenyl)-1H-benzo[d]imidazole], in data set [1], the “LD50” value was found to be 30 µM. Also, in data set [2] (setting [3]), the IC50 worked out at 20 nM. Besides, in data set [2] (setting [4]), the maximal fold induction turned out to be 2.6.

Take `O=C(Nc1ccc(Cl)cn1)c1cccs1` [CP-0072156, N-(5-chloropyridin-2-yl)thiophene-2-carboxamide]: the “LD50” value in data set [1] is over 10 µM. In data set [2] (setting [3]), the IC50 is 2000 nM. The maximal fold induction in data set [2] (setting [4]) was 2.

With `Cn1cc(Cl)c(C(=O)NCC(=O)c2ccccc2)n1` [CP-0070886, 4-chloro-1-methyl-N-(2-oxo-2-phenylethyl)-1H-pyrazole-3-carboxamide], in data set [1], the “LD50” value was over 10 µM. In addition, in data set [2] (setting [3]), the IC50 was found to be 1000 nM. For the same compound, the maximal fold induction in data set [2] (setting [4]) is 2.1.

In the case of `COc1ccc(C2=NN3C(C2)c2cccc(OC)c2OC32CCCCC2)cc1` (stereo not drawn) [CP-0039073, 7-methoxy-2-(4-methoxyphenyl)-1,10b-dihydrospiro[benzo[e]pyra-zolo[1,5-c][1,3]oxazine-5,1′-cyclohexane]], the “LD50” value in data set [1] is over 10 µM. Further, the IC50 in data set [2] (setting [3]) was 1500 nM. In addition, the maximal fold induction in data set [2] (setting [4]) came to 2.4.

For `Clc1ccc2oc(-c3ccccc3)nc2c1` [CP-0079983, 5-chloro-2-phenylbenzo[d]oxazole], the “LD50” value in data set [1] was over 10 µM. For the same compound, in data set [2] (setting [3]), the IC50 was found to be 3000 nM. For the same compound, the maximal fold induction in data set [2] (setting [4]) was found to be 1.8.

For the compound `COc1ccc(-c2cc(-c3ccccc3)[nH]n2)c(O)c1` [CP-0064231, 5-methoxy-2-(5-phenyl-1H-pyrazol-3-yl)phenol], the “LD50” value in data set [1] was over 10 µM. Besides, in data set [2] (setting [3]), the IC50 turned out to be 1000 nM. Besides, the maximal fold induction in data set [2] (setting [4]) was found to be 1.5.

`Cc1ccc(CSc2nc3ncccc3o2)cc1` [CP-0130586, 2-(4-methylbenzylthio) oxazolo[4,5-b]pyridine]: the “LD50” value in data set [1] is over 10 µM. The IC50 in data set [2] (setting [3]) was 500 nM. The maximal fold induction in data set [2] (setting [4]) was determined as 2.2.

Consider `O=C(NNC(=S)Nc1ccc(F)cc1)c1ccccc1Cl` [CP-0005186, 2-(2-chlorobenzoyl)-N-(4-fluorophenyl)hydrazine-carbothioamide], for which the “LD50” value in data set [1] is over 10 µM. In addition, the IC50 in data set [2] (setting [3]) was determined as 1000 nM. For the same compound, the maximal fold induction in data set [2] (setting [4]) amounted to 1.8.

On to `COc1ccccc1N1CCN(c2ccc3ccccc3n2)CC1` [CP-0087799, 2-(4-(2-methoxyphenyl)piperazin-1-yl)quinoline], for which the “LD50” value in data set [1] was over 10 µM. Further, in data set [2] (setting [3]), the IC50 came out at 1000 nM. Further, in data set [2] (setting [4]), the maximal fold induction amounted to 2.1.

As to `O=C(Nc1nc2ccc(Br)cc2s1)c1cccs1` [CP-0064917, N-(6-bromobenzo[d]thiazol-2-yl)thiophene-2-carboxamide], the “LD50” value in data set [1] is over 10 µM. Besides, the IC50 in data set [2] (setting [3]) was over 10000 nM. For the same compound, the maximal fold induction in data set [2] (setting [4]) came to 2.

Consider `CC(=O)Nc1ccc2nc(NC(=O)c3ccco3)sc2c1` [CP-0105777, N-(6-acetamidobenzo[d]thiazol-2-yl)furan-2-carboxamide], for which, in data set [1], the “LD50” value is over 10 µM. For the same compound, the half-maximal inhibitory concentration (IC50) in data set [2] (setting [3]) is 300 nM. The maximal fold induction in data set [2] (setting [4]) was 2.

Consider `O=C(Nc1ccc(Cl)cn1)c1sc2ccccc2c1Cl` [CP-0064314, 3-chloro-N-(5-chloropyridin-2-yl)benzo[b]thiophene-2-carboxamide], for which the “LD50” value in data set [1] was over 10 µM. In addition, in data set [2] (setting [3]), the IC50 is over 10000 nM. Moreover, in data set [2] (setting [4]), the maximal fold induction came to 1.7.

With `COc1ccc(C2C=C(c3ccc(Cl)cc3)Nc3nc4ccccc4n32)cc1` (stereo not drawn) [CP-0050095, 2-(4-chlorophenyl)-4-(4-methoxyphenyl)-1,4-dihydrobenzo[4.5]imi-dazo[1,2-a]pyrimidine], in data set [1], the “LD50” value was over 10 µM. Moreover, in data set [2] (Homo sapiens, HEK293), the IC50 was 1500 nM. Further, in data set [2] (Homo sapiens, HEK293, read-out: Maximum (Fold DMSO)), the maximal fold induction worked out at 2.6.

With `CC(=O)c1sc(-c2ccc(C(C)(C)C)cc2)cc1N` [CP-0008545, 1-(3-amino-5-(4-tert-butylphenyl)thiophen-2-yl)ethanone], the “LD50” value in data set [1] is over 10 µM. Further, in data set [2] (setting [3]), the concentration for half-maximal inhibition (IC50) is 400 nM. Moreover, the maximal fold induction in data set [2] (setting [4]) was 2.5.

For the compound `COc1cccc(Nc2ncnc3[nH]cnc23)c1` [CP-0072720, N-(3-methoxyphenyl)-9H-purin-6-amine], the “LD50” value in data set [1] is over 10 µM. For the same compound, in data set [2] (setting [3]), the concentration for half-maximal inhibition (IC50) was 3000 nM. In data set [2] (setting [4]), the maximal fold induction was found to be 1.8.

As to `Cc1ccccc1-c1nnc(-c2ccccc2)o1` [CP-0062030, 2-phenyl-5-o-tolyl-1,3,4-oxadiazole], in data set [1], the “LD50” value was over 10 µM. Also, in data set [2] (setting [3]), the IC50 was 2000 nM. For the same compound, the maximal fold induction in data set [2] (setting [4]) stood at 1.6.

As for `c1ccc(CCn2nnc3ccccc32)cc1` [CP-0070871, 1-phenethyl-1H-benzo[d][1,2,3]triazole], the “LD50” value in data set [1] was over 10 µM. In addition, the IC50 in data set [2] (setting [3]) stood at 3000 nM. Further, in data set [2] (setting [4]), the maximal fold induction came out at 2.

For `COc1ccc(-c2nc3ccc(Cl)cc3n2OCc2cc(C)cc(C)c2)cc1` [CP-0000554, 6-chloro-1-(3,5-dimethylbenzyloxy)-2-(4-methoxyphenyl)-1H-benzo[d]imidazole], the “LD50” value in data set [1] was over 30 µM. The IC50 in data set [2] (setting [3]) was determined as 400 nM. Moreover, the maximal fold induction in data set [2] (setting [4]) turned out to be 2.

With `CCc1c(C)[nH]c2cc(-c3ccc(Cl)cc3)nn2c1=O` [CP-0063375, 2-(4-chlorophenyl)-6-ethyl-5-methylpyrazolo[1,5-a]pyrimidin-7(4H)-one], the “LD50” value in data set [1] is over 10 µM. Besides, in data set [2] (setting [3]), the IC50 worked out at 2200 nM. Besides, the maximal fold induction in data set [2] (setting [4]) is 1.9.

Turning to `CN(C)c1ccc(C2NN=C(c3ccc(Cl)cc3)N2)cc1` (stereo not drawn) [CP-0007994, 4-(3-(4-chlorophenyl)-4,5-dihydro-1H-1,2,4-triazol-5-yl)-N,N-dimethylaniline], the “LD50” value in data set [1] was over 10 µM. Further, in data set [2] (setting [3]), the IC50 was 1000 nM. For the same compound, the maximal fold induction in data set [2] (setting [4]) came out at 1.9.

Take `Nc1nn(-c2ncnc3c2[nH]c2ccccc23)cc1-c1ccc(Cl)cc1` [CP-0000477, 4-(4-chlorophenyl)-1-(5H-pyrimido[5,4-b]indol-4-yl)-1H-pyrazol-3-amine]: the “LD50” value in data set [1] is over 30 µM. Also, the IC50 in data set [2] (setting [3]) came to 2000 nM. Also, the maximal fold induction in data set [2] (setting [4]) came to 2.
